test system: primary human colon epithelial cells infected with EHEC; test: Colon chip EHEC infection, epithelial lesion analysis; assay type: cell-based; settings: metabolites added individually to a colon-chip
Description: Referring generally to FIGS. 18A-18C, microbiome metabolites recapitulate species-specific tolerance in Colon Chips. Human or mouse intestinal microbiome metabolites (e.g., isolated from specific strains of bacterial or fecal samples incubated in a bioreactor) were added to the intestinal channel of optically clear, human colon chips that are lined by primary human colon epithelial cells and directly opposed to a second parallel vascular microchannel in which HIMVECs are cultured. The two channels are separated by a thin, porous, ECM-coated membrane. Human intestinal epithelium was isolated from resections or endoscopic tissue biopsies. Endoscopic biopsies were collected from macroscopicallynormal (grossly unaffected) areas of the colon undergoing endoscopy for abdominal complaints. Organoids were grown from these tissue samples and seeded into the upper chamber of a two channel closed top microfluidic device. Human intestinal microvascular endothelial cells (HIMECs) were obtained from ScienCell (Cat #2900). The intestinal luminal channel medium was switched to 5% (vol vol-1) human (Hmm) or mouse (Mmm) gut microbiome metabolites isolated from PolyFermS bioreactors, diluted in phosphate-buffered saline (PBS) containing calcium and magnesium (final osmolarity=300 mOsm kg-1), filtered through a 0.2 μm filter (Corning), and stored at −80° C.
For example, on day 8 of a colon chip culture, the luminal culture medium is replaced with the same medium supplemented with human or murine microbiome metabolites (diluted 1:20 in a PBS-water based solution to 300 mOsm kg-1), while continuing to flow the same endothelial culture medium through the vascular channel. Perfusion is continued for 24 hours, followed by introduction of EHEC (1.7×105; serotype O157:H7) into the apical lumen in the same medium for 3 hours under static conditions to allow for bacterial cell attachment; medium flow is then re-established and continued for 24 additional hours.
Referring to colon chip infection, colon chips were cultured in the intestinal lumen channel of a chip in 5% (vol vol-1) human or mouse gut microbiome metabolites isolated from PolyFermS bioreactors, diluted in phosphate-buffered saline (PBS; final osmolarity=300 mOsm kg-1) or 24 hours. The following day, the intestinal channel was infected with 1.7×105. EHEC-GFP or EHEC A fliC (both generated from NR-3 E. coli/EDL931; serotype O157:H7), by adding the bacteria into the channel lumen in medium again with or without Hmm or Mmm. […]
For epithelial lesion analysis, one day post-infection, colon chips were washed with PBS and fixed with 4% paraformaldehyde in PBS for 2 hours. […] The area occupied by cells and the total area of the chip were measured using Fiji software.

Row | Structure (SMILES) | epithelial injury during a EHEC infection of the chip
1 | Cc1ccc(C(=O)O)cc1 [4-methyl benzoic acid] | enhance epithelial injury
2 | Cc1ccc(C(=O)O)cc1C [3,4-dimethylbenzoic acid] | enhance epithelial injury
3 | CCCCCCC(=O)O [heptanoic acid] | enhance epithelial injury
4 | CCCCCC(=O)O [hexanoic acid] | enhance epithelial injury

From patent publication US11807871B2, “Complex human gut microbiome cultured in an anaerobic human gut-on-a-chip” (President and Fellows of Harvard College, priority 2018, dated 2023)
